± gives the expanded uncertainty stated by the source.
Experiments:
[1] = 298.15 K; 101.33 kPa; Liquid; Vibrating tube method
[2] = refractive index (Na D-line) (dimensionless); conditions: 293.15 K; 101.33 kPa; Liquid; Standard Abbe refractometry

Row | SMILES | mass density [1] [kg/m3] | refractive index [2]
1 | CC(=O)CC(C)=O [2,4-pentanedione] | 971.7 ± 0.2 | 1.4489 ± 0.0008
2 | C1CCCCC1 [cyclohexane] | 773.4 ± 0.2 | 1.4259 ± 0.0008
3 | O [water] | 996.8 ± 0.2 | 1.3327 ± 0.0008
4 | CCOC(C)=O [ethyl acetate] | 894.6 ± 0.2 | 1.3701 ± 0.0008
